Assay results as given in article PMC4263271 (Nature, 2014).

Key:
[1] = molecular target: PHD-2/Egln1 (Homo sapiens, UniProt Q9GZT9); assay: DARTS with Western blot, HeLa lysate; format: binding; details: TNC buffer pH 8.0, 10 mM CaCl2; room temperature
[2] = molecular target: ATP5B (ATP synthase subunit beta) (Homo sapiens, UniProt P06576); assay: DARTS with LC-MS/MS; format: binding; details: TNC buffer pH 8.0, 10 mM CaCl2; room temperature
Chain of ATP5B (ATP synthase subunit beta) (P06576 48-529): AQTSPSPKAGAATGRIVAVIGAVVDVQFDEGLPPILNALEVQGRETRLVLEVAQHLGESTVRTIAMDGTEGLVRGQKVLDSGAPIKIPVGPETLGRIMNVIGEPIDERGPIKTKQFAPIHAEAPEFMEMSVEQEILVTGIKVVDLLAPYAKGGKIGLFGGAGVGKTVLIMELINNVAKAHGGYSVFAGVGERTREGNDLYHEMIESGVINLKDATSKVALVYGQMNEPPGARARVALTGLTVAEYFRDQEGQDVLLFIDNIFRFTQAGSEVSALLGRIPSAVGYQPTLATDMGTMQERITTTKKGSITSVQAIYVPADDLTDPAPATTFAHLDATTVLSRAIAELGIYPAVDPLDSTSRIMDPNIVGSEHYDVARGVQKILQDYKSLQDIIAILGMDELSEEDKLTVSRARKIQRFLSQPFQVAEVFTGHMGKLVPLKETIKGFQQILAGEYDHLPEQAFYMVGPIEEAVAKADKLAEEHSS

Chain of PHD-2/Egln1 (Q9GZT9 2-426): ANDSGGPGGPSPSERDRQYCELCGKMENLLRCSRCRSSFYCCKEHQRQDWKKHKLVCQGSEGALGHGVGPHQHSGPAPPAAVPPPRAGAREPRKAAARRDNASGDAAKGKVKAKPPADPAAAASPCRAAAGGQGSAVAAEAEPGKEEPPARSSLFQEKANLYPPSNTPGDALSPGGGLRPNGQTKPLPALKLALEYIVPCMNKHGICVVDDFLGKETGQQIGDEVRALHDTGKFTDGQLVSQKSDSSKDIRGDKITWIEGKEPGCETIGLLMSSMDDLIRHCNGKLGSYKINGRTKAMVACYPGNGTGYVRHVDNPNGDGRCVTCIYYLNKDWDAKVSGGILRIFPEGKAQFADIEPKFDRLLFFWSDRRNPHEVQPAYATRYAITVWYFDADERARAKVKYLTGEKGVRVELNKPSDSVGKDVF

For `O=C(O)CCC(=O)C(=O)O` [α-KG], the “DARTS with Western blot, HeLa lysate” value [1] was “Binding between α-KG and PHD-2/Egln1” and the “DARTS with LC-MS/MS (Jurkat) and Western blot (HeLa)” value [2] was “DARTS confirms α-KG binding specifically to ATP5B”.
